Target: NP-1 (Homo sapiens, UniProt O14786)
Assay: Biotinylated-VEGF-A165 (bt-VEGF-A165) binding to NP-1
Conditions: for inhibition at 3 µM: 3 μM compound, read-out: Screen (% inhibition at 3 μM); for inhibition at 30 µM: 30 μM compound, read-out: Screen (% inhibition at 30 μM)
Description: Human prostate carcinoma DU145 cells were cultured in growth medium (RPMI 1640 containing 10% FBS and L-glutamine). DU145 cells were seeded at the density of 2×10^4 cells per well (96-well plates) in 0.1 ml growth medium and transfected with adenovirus vectors containing the full-length open-reading frame of human NP-1. The Ad.NP-1-transfected cells grew for 2 days prior to a binding assay.
Confluent Ad.NP-1-transfected cells in 96-well plates were washed twice with phosphate-buffered saline (PBS). The various concentrations of compounds diluted in binding medium (Dulbecco's modified Eagle's medium, 25 mM HEPES pH 7.3 containing 0.1% BSA) were added, followed by addition of 2 nM of bt-VEGF-A165. After 2 h of incubation at room temperature, the medium was aspirated and washed three times with PBS. The bound bt-VEGF-A165 to NP-1 was detected by streptavidin-horseradish peroxidase conjugates and the enzyme substrate, and measured using a Tecan Genios plate reader at A450 nm with a reference wavelength at A595 nm. Non-specific binding was determined in the presence of 100-fold excess unlabelled VEGF-A165.
The 96-well plates were pre-coated with NP1 protein at 3 μg/ml overnight at 4° C. On the following day, the plates were treated with blocking buffer (PBS containing 1% BSA) and washed three times with wash buffer (PBS containing 0.1% Tween-20). The various concentrations of compounds diluted in PBS containing 1% DMSO were added, followed by addition of 0.25 nM of bt-VEGF-A165. After 2 h of incubation at room temperature, the plates were washed three times with wash buffer. The bound bt-VEGF-A165 to NP-1 was detected by streptavidin-horseradish peroxidase conjugates and the enzyme substrate, and measured using a Tecan Genios plate reader at A450 nm with a reference wavelength at A595 nm. Nonspecific binding was determined in the absence of NP-1 coated wells of the plates.

Sequence of NP-1 (O14786 22-923): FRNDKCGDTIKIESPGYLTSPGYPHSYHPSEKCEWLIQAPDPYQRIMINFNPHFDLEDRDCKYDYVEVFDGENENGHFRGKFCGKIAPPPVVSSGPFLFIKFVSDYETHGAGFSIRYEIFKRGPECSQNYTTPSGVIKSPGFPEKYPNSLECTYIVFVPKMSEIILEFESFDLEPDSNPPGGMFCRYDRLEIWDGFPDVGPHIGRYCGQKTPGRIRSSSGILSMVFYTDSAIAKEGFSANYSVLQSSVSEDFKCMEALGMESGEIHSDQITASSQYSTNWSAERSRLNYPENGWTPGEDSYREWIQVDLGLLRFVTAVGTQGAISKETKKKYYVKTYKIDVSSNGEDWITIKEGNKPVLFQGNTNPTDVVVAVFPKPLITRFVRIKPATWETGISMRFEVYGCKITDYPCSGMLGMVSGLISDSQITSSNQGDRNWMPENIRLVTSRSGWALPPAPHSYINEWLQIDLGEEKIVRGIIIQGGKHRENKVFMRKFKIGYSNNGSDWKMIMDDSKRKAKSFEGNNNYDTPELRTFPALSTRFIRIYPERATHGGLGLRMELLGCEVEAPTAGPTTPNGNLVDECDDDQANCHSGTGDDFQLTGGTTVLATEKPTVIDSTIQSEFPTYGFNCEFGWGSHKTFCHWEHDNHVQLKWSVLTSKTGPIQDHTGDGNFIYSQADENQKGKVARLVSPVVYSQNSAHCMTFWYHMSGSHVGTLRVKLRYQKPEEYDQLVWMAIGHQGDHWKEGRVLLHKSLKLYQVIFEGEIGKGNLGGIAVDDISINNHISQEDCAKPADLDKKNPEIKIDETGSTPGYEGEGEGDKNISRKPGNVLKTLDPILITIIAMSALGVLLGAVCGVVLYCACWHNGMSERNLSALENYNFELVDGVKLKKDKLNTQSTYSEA

Row | Compound | IC50 [µM] | inhibition at 3 µM [%] | inhibition at 30 µM [%]
1 | N=C(N)NCCC[C@H](NC(=O)c1sccc1NS(=O)(=O)c1cc(-c2ccccc2CNCCc2cn[nH]c2)cc2c1OCC2)C(=O)O [Compound 47, (S)-5-Guanidino-2-({3-[5-(2-{[2-(1H-pyrazol-4-yl)-ethylamino]-methyl}-phenyl)-2,3-dihydro-benzofuran-7-sulfonylamino]-thiophene-2-carbonyl}-amino)-pentanoic acid] | 0.13 | 86 | 
2 | Cc1ccc(NCCCNCc2cccc(-c3cc4c(c(S(=O)(=O)Nc5ccsc5C(=O)N[C@@H](CCCNC(=N)N)C(=O)O)c3)OCC4)c2)nc1 [Compound 44, (S)-5-Guanidino-2-({3-[5-(3-{[3-(5-methyl-pyridin-2-ylamino)-propylamino]-methyl}-phenyl)-2,3-dihydro-benzofuran-7-sulfonylamino]-thiophene-2-carbonyl}-amino)-pentanoic acid] |  | 78 | 
3 | N=C(N)NCCC[C@H](NC(=O)c1sccc1NS(=O)(=O)c1cccc(NCc2cnn(CCN3CCN(c4ccccn4)CC3)c2)c1)C(=O)O [Compound 68] |  | 37 | 89
4 | Cc1[nH]ncc1CCCNCc1cccc(-c2cc3c(c(S(=O)(=O)Nc4ccsc4C(=O)N[C@@H](CCCNC(=N)N)C(=O)O)c2)OCC3)c1 [Compound 41, (S)-5-Guanidino-2-({3-[5-(3-{[3-(5-methyl-1H-pyrazol-4-yl)-propylamino]-methyl}-phenyl)-2,3-dihydro-benzofuran-7-sulfonylamino]-thiophene-2-carbonyl}-amino)-pentanoic acid] |  | 52 | 
5 | Cc1cc(CNc2nc(CNc3cccc(S(=O)(=O)Nc4ccsc4C(=O)N[C@@H](CCCNC(=N)N)C(=O)O)c3)cs2)no1 [Compound 67] |  | 44 | 90
6 | N=C(N)NCCC[C@H](NC(=O)c1sccc1NS(=O)(=O)c1cc(-c2ccccc2CNCc2ncc[nH]2)cc2c1OCC2)C(=O)O [Compound 24, (S)-5-Guanidino-2-({3-[5-(2-{[(1H-imidazol-2-ylmethyl)-amino]-methyl}-phenyl)-2,3-dihydro-benzofuran-7-sulfonylamino]-thiophene-2-carbonyl}-amino)-pentanoic acid] |  | 67 | 100
7 | N=C(N)NCCC[C@H](NC(=O)c1sccc1NS(=O)(=O)c1cc(-c2ccccc2CNCc2ccc(O)nc2)cc2c1OCC2)C(=O)O [Compound 49, (S)-5-Guanidino-2-({3-[5-(2-{[(6-hydroxy-pyridin-3-ylmethyl)-amino]-methyl}-phenyl)-2,3-dihydro-benzofuran-7-sulfonylamino]-thiophene-2-carbonyl}-amino)-pentanoic acid] |  | 52 | 
8 | N=C(N)NCCC[C@H](NC(=O)c1sccc1NS(=O)(=O)c1cc(-c2cccc(CN3CCC(C(=O)O)CC3)c2)cc2c1OCC2)C(=O)O [Compound 3, 1-(3-{7-[2-((S)-1-Carboxy-4-guanidino-butylcarbamoyl)-thiophen-3-ylsulfamoyl]-2,3-dihydro-benzofuran-5-yl}-benzyl)-piperidine-4-carboxylic acid] | 0.142 | 89 | 
9 | N=C(N)NCCC[C@H](NC(=O)c1sccc1NS(=O)(=O)c1cc(-c2cccc(CN3CCN(CCO)CC3)c2)cc2c1OCC2)C(=O)O [Compound 55, (S)-5-Guanidino-2-{[3-(5-{3-[4-(2-hydroxy-ethyl)-piperazin-1-ylmethyl]-phenyl}-2,3-dihydro-benzofuran-7-sulfonylamino)-thiophene-2-carbonyl]-amino}-pentanoic acid] | 0.525 | 71 | 
10 | N=C(N)NCCC[C@H](NC(=O)c1sccc1NS(=O)(=O)c1cccc(NCc2csc(N3CCN(c4cnccn4)CC3)n2)c1)C(=O)O [Compound 74] |  | 55 | 
11 | Cc1ccnc(NCCNCc2cccc(-c3cc4c(c(S(=O)(=O)Nc5ccsc5C(=O)N[C@@H](CCCNC(=N)N)C(=O)O)c3)OCC4)c2)c1 [Compound 45, (S)-5-Guanidino-2-({3-[5-(3-{[2-(4-methyl-pyridin-2-ylamino)-ethylamino]-methyl}-phenyl)-2,3-dihydro-benzofuran-7-sulfonylamino]-thiophene-2-carbonyl}-amino)-pentanoic acid] |  | 81 | 
12 | N=C(N)NCCC[C@H](NC(=O)c1sccc1NS(=O)(=O)c1cc(-c2ccccc2CN2CCN(c3ccccn3)CC2)cc2c1OCC2)C(=O)O [Compound 14, (S)-5-Guanidino-2-[(3-{5-[2-(4-pyridin-2-yl-piperazin-1-ylmethyl)-phenyl]-2,3-dihydro-benzofuran-7-sulfonylamino}-thiophene-2-carbonyl)-amino]-pentanoic acid] |  | 67 | 100
13 | N=C(N)NCCC[C@H](NC(=O)c1sccc1NS(=O)(=O)c1cc(-c2ccccc2CN2CCN(c3cccnc3)CC2)cc2c1OCC2)C(=O)O [Compound 10, (S)-5-Guanidino-2-[(3-{5-[2-(4-pyridin-3-yl-piperazin-1-ylmethyl)-phenyl]-2,3-dihydro-benzofuran-7-sulfonylamino}-thiophene-2-carbonyl)-amino]-pentanoic acid] | 2 |  | 97
14 | COC(=O)CC1CCN(Cc2ccccc2-c2cc3c(c(S(=O)(=O)Nc4ccsc4C(=O)N[C@@H](CCCNC(=N)N)C(=O)O)c2)OCC3)CC1 [Compound 6, (S)-5-Guanidino-2-[(3-{5-[2-(4-methoxycarbonylmethyl-piperidin-1-ylmethyl)-phenyl]-2,3-dihydro-benzofuran-7-sulfonylamino}-thiophene-2-carbonyl)-amino]-pentanoic acid] | 0.003 | 95 | 
15 | N=C(N)NCCC[C@H](NC(=O)c1sccc1NS(=O)(=O)c1cc(-c2ccccc2CNCc2ccccn2)cc2c1OCC2)C(=O)O [Compound 18, (S)-5-Guanidino-2-({3-[5-(2-{[(pyridin-2-ylmethyl)-amino]-methyl}-phenyl)-2,3-dihydro-benzofuran-7-sulfonylamino]-thiophene-2-carbonyl}-amino)-pentanoic acid] |  | 70 | 100
16 | N=C(N)NCCC[C@H](NC(=O)c1sccc1NS(=O)(=O)c1cc(-c2ccccc2CN2CCC(C(=O)O)CC2)cc2c1OCC2)C(=O)O [Compound 1, 1-(2-{7-[2-((S)-1-Carboxy-4-guanidino-butylcarbonyl)-thiophen-3-ylsulfamoyl]-2,3-dihydro-benzofuran-5-yl}-benzyl)-piperidine-4-carboxylic acid] | 0.007 | 100 | 
17 | N=C(N)NCCC[C@H](NC(=O)c1sccc1NS(=O)(=O)c1cc(-c2ccccc2CNCc2cc[nH]n2)cc2c1OCC2)C(=O)O [Compound 53, (S)-5-Guanidino-2-({3-[5-(2-{[(1H-pyrazol-3-ylmethyl)-amino]-methyl}-phenyl)-2,3-dihydro-benzofuran-7-sulfonylamino]-thiophene-2-carbonyl}-amino)-pentanoic acid] |  | 54 | 
18 | N=C(N)NCCC[C@H](NC(=O)c1sccc1NS(=O)(=O)c1cc(-c2cccc(CN3CCN(Cc4cccnc4)CC3)c2)cc2c1OCC2)C(=O)O [Compound 11, (S)-5-Guanidino-2-[(3-{5-[3-(4-pyridin-3-ylmethyl-piperazin-1-ylmethyl)-phenyl]-2,3-dihydro-benzofuran-7-sulfonylamino}-thiophene-2-carbonyl)-amino]-pentanoic acid] | 1.5 |  | 98

— patent US20120201749A1, “NP-1 Antagonists and Their Therapeutic Use” (priority 2009, published 2012)
